Measurements taken from PMC3257379 (Amino Acids, 2011).
Positions of bridges follow the written chain, without caps; N, C: chain ends. No end group written: not given here.

Legend:
MDA-MB-435 xenografts = conditions: systemic LyP-1 peptide treatment of xenografted tumor mice; ref Laakkonen et al. 2004; cited from earlier work
[1] = test system: tumor-draining brachial LNs of 4T1 tumor-bearing BALB/C mice; experiment: Ex vivo optical; assay type: in vivo, mouse; conditions: day 21 after tumor inoculation; 0.8 nmol, 24 h post injection; no blocking; n = 3/group

Substance | Effect on tumor growth (MDA-MB-435 xenografts) | Average signal of tumor-draining LNs [1]
CGNKRTRGC (disulfide 1-9 (inferred)) [LyP-1] | inhibited tumor growth | 
Cy5.5 |  | 25.6 ± 0.25 ×10^3 photon/cm^2/s
